The values below come from PMC11019635, “On-Resin Photochemical Decarboxylative Arylation of Peptides” (Organic Letters, 2023).

The target of this assay is PRMT5/MEP50 complex (Homo sapiens, UniProt O14744+Q9BQA1). In words: Competitive fluorescence polarization assay against a tracer peptide binding to the PRMT5/MEP50 complex. The following applies: competitive FP; for IC50: 200 nM PRMT5:MEP50 complex, 1 nM tracer peptide 50, 50 mM HEPES, 250 mM NaCl, 1 mM TCEP, 0.01% Tween 20, pH 8.0, 1 hour incubation, ex 485 nm / em 535 nm, four-parameter fit. The text has this: Next, we used the method to perform a small SAR study on a peptide that we previously identified as an inhibitor of PRMT5 protein–protein interactions.[37] The peptide is derived from the PRMT5 binding protein RioK1 and contains a Phe that is important for high-affinity binding. We prepared a peptide with an Asp residue installed in its place, which was protected using the 2-phenylisopropyl group to avoid aspartimide formation during peptide extension that occurred while using the allyl group.[38] The batch was split, and each portion was reacted with a different Ar–Br to rapidly generate peptides with diverse Phe analogues (Figure 3C). The prepared peptides were then tested in a competitive fluorescence polarization assay against a tracer peptide binding to the PRMT5/MEP50 complex.[37] […]
h. Competitive Fluorescence Polarization assay
Evaluation of peptide 42-46 was performed similar to our previously described protocol.3 As tracer, we used peptide 50 from the same report. In brief, the peptides to be tested were serially diluted in buffer (50 mM HEPES, 250 mM NaCl, 1mM TCEP, and 0.01% (v/v) Tween 20, pH 8.0) in a black 384 wells plate in a total volume of 10 μl per well. Next, a mixture of PRMT5:MEP50 complex and tracer peptide 50 in the same buffer was added so that a final protein concentration of 200 nM and final tracer concentration of 1 nM was reached. The mixture was incubated for 1 hour and read on a Tecan Spark plate reader in fluorescence polarization mode set to an excitation wavelength of 485 nm and emission wavelength of 535 nm. Data was analyzed using Graphpad Prism version 9.2.0 and curves were fitted using nonlinear regression (log(inhibitor) vs. response – variable slope (four parameters)).
A general note: In fluorescence polarisation assays a small probe gives low polarisation when free and higher when bound to something large.

Starred links: 1 amine or outer side, 2 acyl side, 3 side chain; linkers in the order of their positions; H or OH if unused. Non-standard residues stand in square brackets, D forms with d. Residues, ends and D or L forms follow the SMILES beside them. X1 = O=C([C@H](Cc1ccc2c(c1)OC(F)(F)O2)N[*:1])[*:2]; Phe(4-CF3) = N[C@@H](Cc1ccc(C(F)(F)F)cc1)C(=O)O; X2 = N#CCc1ccc(C[C@H](N[*:1])C(=O)[*:2])cc1; Phe(4-CN) = N#Cc1ccc(C[C@H](N)C(=O)O)cc1

Chain of PRMT5/MEP50 complex (O14744 whole entry, species assumed): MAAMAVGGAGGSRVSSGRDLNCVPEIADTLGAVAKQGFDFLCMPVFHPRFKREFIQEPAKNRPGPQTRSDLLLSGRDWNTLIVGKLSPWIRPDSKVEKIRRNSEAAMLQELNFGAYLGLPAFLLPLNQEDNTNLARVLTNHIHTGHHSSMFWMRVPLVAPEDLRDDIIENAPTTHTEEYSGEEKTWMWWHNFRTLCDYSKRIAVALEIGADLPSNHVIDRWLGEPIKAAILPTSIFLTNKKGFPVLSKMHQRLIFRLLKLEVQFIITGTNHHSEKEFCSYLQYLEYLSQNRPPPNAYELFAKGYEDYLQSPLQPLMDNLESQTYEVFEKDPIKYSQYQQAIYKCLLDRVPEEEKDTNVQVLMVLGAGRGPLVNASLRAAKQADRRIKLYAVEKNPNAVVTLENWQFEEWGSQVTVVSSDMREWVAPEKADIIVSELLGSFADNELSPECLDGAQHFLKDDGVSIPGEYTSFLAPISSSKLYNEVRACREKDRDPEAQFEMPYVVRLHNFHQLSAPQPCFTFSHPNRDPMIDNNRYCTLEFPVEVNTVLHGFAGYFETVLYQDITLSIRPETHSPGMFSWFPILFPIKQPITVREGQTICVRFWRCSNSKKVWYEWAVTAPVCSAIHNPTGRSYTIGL
Chain of PRMT5/MEP50 complex (Q9BQA1 whole entry partner, species assumed): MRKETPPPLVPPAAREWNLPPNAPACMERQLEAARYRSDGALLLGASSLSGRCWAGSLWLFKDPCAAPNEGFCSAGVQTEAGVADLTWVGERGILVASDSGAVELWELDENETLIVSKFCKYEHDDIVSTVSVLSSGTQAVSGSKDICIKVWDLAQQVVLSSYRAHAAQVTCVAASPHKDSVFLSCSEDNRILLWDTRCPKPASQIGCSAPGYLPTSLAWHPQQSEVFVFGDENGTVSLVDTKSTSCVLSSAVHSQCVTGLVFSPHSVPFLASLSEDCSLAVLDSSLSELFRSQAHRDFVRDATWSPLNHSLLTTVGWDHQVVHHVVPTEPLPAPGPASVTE

Usually IC50 stands for the concentration at which inhibition is half-maximal. A higher IC50 goes with lower potency. `CC(=O)N[C@H](C(=O)N1CCC[C@H]1C(=O)NCC(=O)N[C@@H](CCC(N)=O)C(=O)N[C@@H](Cc1ccc(C(F)(F)F)cc1)C(=O)N[C@@H](CC(=O)O)C(=O)N[C@@H](CC(=O)O)C(=O)N[C@@H](C)C(=O)N[C@@H](CC(=O)O)C(N)=O)C(C)C` [compound 44] (Ac-VPGQ[Phe(4-CF3)]DDAD-NH2): the concentration for half-maximal inhibition (IC50) is 6.74 ± 3.23 µM.
As for `CC(=O)N[C@H](C(=O)N1CCC[C@H]1C(=O)NCC(=O)N[C@@H](CCC(N)=O)C(=O)N[C@@H](Cc1ccc(CC#N)cc1)C(=O)N[C@@H](CC(=O)O)C(=O)N[C@@H](CC(=O)O)C(=O)N[C@@H](C)C(=O)N[C@@H](CC(=O)O)C(N)=O)C(C)C` [compound 43] (Ac-VPGQ[X2]DDAD-NH2), the IC50 stood at 14.6 ± 6.37 µM.
For the compound `CC(=O)N[C@H](C(=O)N1CCC[C@H]1C(=O)NCC(=O)N[C@@H](CCC(N)=O)C(=O)N[C@@H](Cc1ccc(C#N)cc1)C(=O)N[C@@H](CC(=O)O)C(=O)N[C@@H](CC(=O)O)C(=O)N[C@@H](C)C(=O)N[C@@H](CC(=O)O)C(N)=O)C(C)C` [compound 42] (Ac-VPGQ[Phe(4-CN)]DDAD-NH2), the IC50 came out at 0.56 ± 0.15 µM. For the same compound, the “fold improvement in IC50 in comparison to the wild-type peptide 46” value (PRMT5/MEP50 complex, relative to peptide 46) is on record as 3 fold.
“Ac-VPGQFDDAD-NH2 [compound 46, reference compound]” had a half-inhibitory concentration (IC50) of 1.71 ± 0.59 µM.
Same read-out and setting: with `CC(=O)N[C@H](C(=O)N1CCC[C@H]1C(=O)NCC(=O)N[C@@H](CCC(N)=O)C(=O)N[C@@H](Cc1ccc2c(c1)OC(F)(F)O2)C(=O)N[C@@H](CC(=O)O)C(=O)N[C@@H](CC(=O)O)C(=O)N[C@@H](C)C(=O)N[C@@H](CC(=O)O)C(N)=O)C(C)C` [compound 45] (Ac-VPGQ[X1]DDAD-NH2) the figure was 17.1 ± 8.05 µM.
